Where a SMILES comes first, the peptide text is derived from it. The star is where a group is joined. NHtBu = CC(C)(C)N*
SMILES | logP
COc1cc(C)c2c(c1OC)-c1ccc(NCc3ccccc3)c(=O)cc1C(NC(C)=O)CC2 (configuration not stated) | 3.58
COc1cc(Cc2cnc(N)nc2N)cc(Br)c1OC | 2.23
CCCC(=O)OCCOCn1cnc2c(=O)[nH]c(N)nc21 | -0.08
CCC(C)N1C(=O)C(=O)c2ccccc2C1=O (configuration not stated) | 2.15
COCCCNC(=S)Cn1cnc([N+](=O)[O-])n1 | 0.63
CC(=O)OC1CC2(O)C3CCC4CC(OC5CC(O)C(OC6CC(O)C(OC7CC(O)C(O)C(C)O7)C(C)O6)C(C)O5)CCC4(C)C3CCC2(C)C1C1=CC(=O)OC1 (configuration not stated) | 2.16
CN(C)N=Nc1ccc(C(F)(F)F)cc1 | 4
COC(=O)Cc1ccc(O)c2ncccc12 | 1.59
CCOC(=O)Cn1cnc([N+](=O)[O-])c1I | 0.57
C#CCOc1c(Cl)cc(NC=NOCC(=O)OCC)cc1Cl | 3.6
COCC(O)Cn1cc([N+](=O)[O-])nn1 (configuration not stated) | -0.36
CCC(C)C(=O)OC1CCC=C2C=CC(C)C(CCC(O)CC(O)CC(=O)O)C21 (configuration not stated) | 3.6
O=[N+]([O-])N=C1NCCN1Cc1cccnc1 | -0.19
O=C(O)C(Cc1ccc(O)cc1)n1cccc1 (configuration not stated) | 1.56
CN1C(=O)C(=O)C(=O)N(C)C1=O | -0.6
Clc1cc2c(cc1Cl)Oc1c(Cl)ccc(Cl)c1O2 | 6.39
CCOc1ccc(NC(=O)OCCN2CCOCC2)cc1 | 2.18
OC1CCN(CCCc2ccccc2COc2ccc(F)cc2)CC1 | 3.3
CCCCCC1CC(C(=O)NC(C(C)O)C2OC(SC)C(O)C(O)C2O)N(C)C1 (configuration not stated) | 0.93
CCCOc1ccc2ccc(=O)oc2c1 | 2.86
CC(=O)OC1CC(OC2C(O)CC(OC3CCC4(C)C(CCC5C4CC(O)C4(C)C(C6=CC(=O)OC6)CCC54O)C3)OC2C)OC(C)C1OC1CC(O)C(O)C(C)O1 (configuration not stated) | 2
CC(=O)NC(CC(C)C)C(=O)NC(Cc1ccccc1)C(=O)NC(CCCNC(=N)N)C(N)=O (stereo not drawn) (Ac-Leu-Phe-Arg-NH2; configuration not given here) | -0.12

SMILES | logP
O=C(O)C(OCc1ccccc1)c1ccccc1 (configuration not stated) | 2
O=C(NCO)c1c(I)c(C(=O)NCCO)c(I)c(N(CC(O)CO)C(=O)C(O)CO)c1I (configuration not stated) | -2.65
Cn1c([N+](=O)[O-])cnc1Cc1ccc(C(N)=O)cc1 | 0.55
O=C(O)C[N+]1([O-])CCN(C(=O)Cn2c(=O)sc3ccc(Cl)cc32)CC1 | 0.21
Cc1cccc(C(=O)NN(C(=O)c2ccccc2Cl)C(C)(C)C)c1 | 3.11
CC(=O)OC1CC(OC2CCC3(C)C(CCC4C3CC(O)C3(C)C(C5=CC(=O)OC5)CCC43O)C2)OC(C)C1OC1CC(O)C(OC2CC(O)C(O)C(C)O2)C(C)O1 (configuration not stated) | 1.71
CCN1C(=O)C(=O)c2ccccc2C1=O | 1.13
NC(=O)c1ccc2ccccc2c1 | 1.88
Cc1cc(=O)oc2cc(OC3OC(CO)C(O)C(O)C3O)ccc12 (configuration not stated) | -0.66
CC12CCC(=O)C=C1CC(C#N)C1C2CCC2(C)C1CCC21CCC(=O)O1 (configuration not stated) | 1.67
CNC(=O)C=C(C)OP(=O)(OC)OC | -0.2
CCC(C)C(NC(=O)C(CC(=O)O)NC(C)=O)C(=O)NC(Cc1ccccc1)C(N)=O (configuration not stated) | 0.61
CC(=O)c1c(C)n(C)c2ccccc12 | 2.03
CS(=O)(=O)ON1C(=O)c2ccc(N)cc2C1=O | 0.8
Cn1c([N+](=O)[O-])cnc1COc1ccc(Cl)cc1 | 1.8
CC(C)NCC(COc1cccc2ccccc12)OS(=O)(=O)O (configuration not stated) | 1.16
CCOc1ccc(C(=O)O)cc1OCC | 2.37
Cc1cc(=O)[nH]c(=O)[nH]1 | -0.77
CC1CC2C3CCC4=CC(=O)C=CC4(C)C3(F)C(O)CC2(C)C1(O)C(=O)NC(C)(C)C (configuration not stated) | 3.2
CNC(=NC#N)NCCCCc1ncccc1OC | 1.5
Cn1c([N+](=O)[O-])cnc1C(N)=O | 0.29
COCCOCC1COC(Cn2cncn2)(c2ccc(Cl)cc2Cl)O1 (configuration not stated) | 2.03

SMILES | logP
CN1C=CCC1c1cccnc1 (configuration not stated) | 1.47
CCN(C=Nc1ccn(C2CC(O)C(CO)O2)c(=O)n1)CC (configuration not stated) | -0.59
Clc1cc(Cl)cc(-c2cc(Cl)c(Cl)c(Cl)c2Cl)c1 | 7.43
Cc1cccc(Cl)c1Cl | 3.96
Cc1ccc(SCCNc2ccccc2C(N)=O)cc1 | 3.15
CC(C)CCCNC(=O)C1(O)C(C)CC2C3CCC4=CC(=O)C=CC4(C)C3(F)C(O)CC21C (configuration not stated) | 3.93
COC1CC(OC2CCC3(C=O)C4CCC5(C)C(C6=CC(=O)OC6)CCC5(O)C4CCC3(O)C2)OCC1O (configuration not stated) | 0.64
C=CCn1cnc2c(=O)[nH]c(Nc3ccccc3)nc21 | 1.75
COc1nc(N(C)C)nc(C(Cl)(Cl)Cl)n1 | 3.33
c1ccc2c3c([nH]c2c1)CN1CCNCC1C3 (configuration not stated) | 0.36
CC1(C)CCC(C)(C)N1[O] | 1
Nc1ccc(Oc2ccc(N)cc2)cc1 | 1.36
c1ccc(OCc2cccc(CN3CCCOC3)c2)cc1 | 2.75
Cc1ccc(C2(Cn3cncn3)OCCO2)cc1 | 1.55
COc1c([N+](=O)[O-])nc(C)n1C | -0.09
Nc1ncc(Cc2cccc(Cl)c2Cl)c(N)n1 | 2.81
CCOc1ccc(OCc2ccccc2CCCN2CCC(O)CC2)cc1 | 3.42
Cc1cn(C2CC(N=[N+]=[N-])C(COC(=O)CCNC(=O)C34CC5CC(CC(C5)C3)C4)O2)c(=O)[nH]c1=O (configuration not stated) | 2.14
CC(=NOCC(=O)O)c1cc(Oc2ccc(C(F)(F)F)cc2Cl)ccc1[N+](=O)[O-] | 4.3
FC(F)(F)C1(F)C(F)(F)C(F)(F)C(F)(N2C(F)(F)C(F)(F)C(F)(F)C(F)(F)C2(F)F)C(F)(F)C1(F)F (configuration not stated) | 7.1
O=c1[nH]nc(SCc2ccccc2)[nH]1 | 1.47
CCCCC(C#N)(Cn1cncn1)c1ccc(Cl)cc1 (configuration not stated) | 2.94

SMILES | logP
Cc1n[nH]c(C(=O)NC2CCCC2)c1[N+](=O)[O-] | 1.24
CCN(C)N=Nc1ccccc1C(N)=O | 2.59
CCCC(C)C(=O)OCC1CCC(n2cnc3c(=O)[nH]cnc32)O1 (configuration not stated) | 1
CC(C)(C)NCC(O)COCCCc1ccccc1 (configuration not stated) | 2.58
Nc1nc(Sc2ccc(Cl)cc2)nc(C(Cl)(Cl)Cl)n1 | 4.51
CC(=O)NC(C)C(=O)N1CCCC1C(=O)NC(C)C(=O)NC(C)(C)C (stereo not drawn) (Ac-Ala-Pro-Ala-NHtBu; configuration not given here) | -0.39
CCN1C(=O)C(=O)c2ccc(Cl)cc2C1=O | 1.79
CCc1cccc(NC(=O)Cc2ccccc2)c1 | 3.47
CNc1nccn2cc(-c3ccc(S(C)=O)cc3OC)nc12 (configuration not stated) | 1.88
N#CC(C#N)=NNc1ccccc1Cl | 3.12
O=C1CC(Sc2ccncc2)N1 (configuration not stated) | 0.61
O=C(NCCCOc1cccc(CN2CCCCC2)c1)c1ccccc1 | 3.97
C=CCN(C)N=Nc1ccccc1C(N)=O | 2.91
CCC(C)OC(=O)C(C(=O)OC(C)CC)=C1SC=CS1 (configuration not stated) | 4.89
Oc1c(I)cc(I)cc1I | 4.5
CCCNc1nc(C(Cl)(Cl)Cl)nc(C(Cl)(Cl)Cl)n1 | 4.09
Cc1nonc1Cc1ccc([N+](=O)[O-])cc1 | 2.21
COc1cccc2c1C(=O)c1c(O)c3c(c(O)c1C2=O)CC(O)(C(O)CO)CC3OC1CC(N2CCOCC2C#N)C(O)C(C)O1 (configuration not stated) | 1.56
CC1COC(Cn2cncn2)(c2ccc(Oc3ccc(Cl)cc3)cc2Cl)O1 (configuration not stated) | 4.3
CCCCNC(=O)C1(O)C(C)CC2C3CCC4=CC(=O)C=CC4(C)C3(F)C(O)CC21C (configuration not stated) | 3.1
Cc1ncc([N+](=O)[O-])n1CCNC(=O)OC1CCCCC1 | 2.01

From the OPERA property sets (Mansouri et al. 2018)
